Measured values: patent US9730909B2, “Methods for targeting cancer stem cells” (BOSTON BIOMEDICAL, INC, priority 2010, dated 2017)
“And” between values parts separate entries of the source, which are not always exact repeats. Identical values can stand only once. “Also recorded” adds a separate entry of the source.

Legend:
advanced cancers = assay: Progression free survival of patients; type: in vivo, human
Source text: FIG. 22 is a graph that illustrates the comparison of progression free survival of colorectal cancer patients treated with Compound 1. The progression free survival (PFS) of evaluable patients with colorectal cancer treated with Compound 1 was compared against historical PFS data for best supportive care in patients with colorectal cancer.
FIG. 23 is a graph that illustrates the comparison of progression free survival (PFS) versus pharmacokinetic exposure. The PFS of evaluable patients receiving Compound 1 was compared against Compound 1 exposure above or below 1.6 uM for at least 4 hours.

[1] = Phase I clinical trial: safety and tolerability; type: in vivo, human
Source text: Grade 3 or greater events include: fatigue and diarrhea.

[2] = Concentration in patient urine; type: in vivo, human; conditions: patient 0001, 20 mg daily administration
[3] = system: cancer cells and normal cells; assay: Exposure concentration/time and selective killing of cancer versus normal cells; type: cell-based
Method: The studies described herein discovered counter-intuitively that cancer cells and cancer stem cells requires much shorter exposure than normal cells to be killed by Compound 1. Normal cells can tolerate up to 24 hours of exposure to Compound 1. Furthermore, the studies here discovered that normal cells can recover after a short period of no-drug exposure, while cancer cells cannot recover once they are exposed to a certain concentration of the Compound 1 for at least 2 hours. Based on these studies, a special pharmacokinetic exposure [termed selective pharmacokinetic profile (SPP), or preferred pharmacokinetic profile (PPP), which is used interchangeably in this publication] was designed for Compound 1 using the data shown below in Table 14 for achieving selective antitumor activity in patients (FIG. 24).
The selective activity of Compound 1 in killing cancer cells and sparing normal cells is represented by the data in Table 14 and illustrated in FIG. 24.

advanced solid tumors = assay: Phase I clinical trial: tumor response (RECIST 1.1); type: in vivo, human
Source text: Of the 42 patients dosed, 24 were evaluable for tumor response as of Feb. 7, 2011; 16 (16/24 evaluable patients) achieved stable disease (8 to 75+ weeks).

[4] = system: FaDu human head and neck cancer; assay: Subcutaneous FaDu human head and neck cancer xenograft in immunosuppressed mice; type: in vivo
Method: In the studies shown in FIG. 8, immunosuppressed mice with established subcutaneous FaDu human head and neck cancer were given indicated amount of hand grounded Compound 1 with Crystal Form 1, or vehicle control orally (po). Compound 1 was formulated in […]™. All regimens were administered daily (qd). Tumor sizes were evaluated periodically during treatment.
In the study shown in FIG. 9, immunosuppressed mice with established subcutaneous FaDu human head and neck cancer were given 100 mg/kg of micronized Compound 1 produced with the synthetic process described in FIGS. 5A and 5B (first crop), or vehicle control orally (po). Compound 1 was formulated in […]™. All regimens were administered daily (qd). Tumor sizes were evaluated periodically during treatment. Form 2 has been successfully manufactured by a current good manufacturing practice (cGMP) process and received approval from the FDA and Health Canada to be used in clinical trials.
Form 3 can only be generated from Form 1 using a specially designed slurry process described herein. […] In the study shown in FIG. 10, immunosuppressed mice with established subcutaneous FaDu human head and neck cancer were given 200 mg/kg of Compound 1 with hand grounded Crystal Form 1 or Form 3, or vehicle control orally (po). Compound 1 was formulated in gelucire. All regimens were administered daily (qd). Tumor sizes were evaluated periodically during treatment. This polymorph has been successfully manufactured by a cGMP process and received approval from FDA and Health Canada to be used in clinical trials.
The anti-tumor activity of particles of Compound 1 with different particle size ranges is illustrated in FIG. 15, and the pharmacokinetic data for particles of Compound 1 with different particle size ranges is illustrated in FIGS. 16-18. In the study shown in FIG. 15, immunosuppressed mice with established subcutaneous FaDu human head and neck cancer were given indicated amount of Compound 1 with indicated particle size, or vehicle control orally (po). All regimens were administered daily (qd). Tumor size was evaluated periodically.
In an experiment, a formulation of Compound 1 particles sieved to 160 micron was tested in the model of immunosuppressed mice with established subcutaneous xenograft FaDu human head and neck cancer. The pharmaceutical composition was formulated as 80 mg/ml in 9% Gelucire, 20% Vitamin E TPGS (Table 3). […] All regimens were administered daily (qd).
In an experiment, Compound 1 crystals were milled to a median particle size of about 20 micron. […] All regimens were administered daily (qd).
FaDu human head and neck cancer cells were inoculated subcutaneously into female athymic nude mice (6×10^6 cells/mouse) and allowed to form palpable tumors. When the tumors reached approximately 100 mm^3, the animals were treated orally (po) with Compound 1 at 100 mg/kg or vehicle control daily. Compound 1 was formulated at 10 mg/ml in 20% gelucire. Tumors and bodyweights were measured throughout treatment (FIG. 15).
(§1) Daily examinations into the health status of each animal were also conducted. Body weights were checked every three days. Food and water was supplied daily according to the animal husbandry procedures of the facility. Treatment producing >20% lethality and or >20% net body weight loss were considered toxic. Results are expressed as mean tumor volume (mm^3)±SE. P Values <0.05 are considered to be statistically relevant.
Male or female athymic nude mice 4-5 weeks (Charles River Laboratories, Wilmington, Mass.), were acclimated to the animal housing facility for at least 1 week before study initiation. […]

[5] = Phase I clinical trial: plasma pharmacokinetics; type: in vivo, human
Method: A cycle consists of twice-daily oral administration of the compound for 4 weeks. Cycles were repeated every 4 weeks (28 days) until progression of disease, unacceptable toxicity, or another discontinuation criterion is met. The dose escalation trial was conducted as open label and multicenter trial. A modified Simon accelerated titration scheme was used for dose escalation.
The primary objective of the trial was to determine the safety, tolerability, and recommended phase II dose (RP2D). The secondary objectives of the trial were to determine the pharmacokinetic profile of the compound, pharmacodynamics of the compound, and preliminary antitumor activity of the compound.

[6] = system: cancer cells and normal cells; conditions: literature reports (Hirai 1999; Takano 2009); cited from earlier work
[7] = Pharmacokinetics in mice of 2, 20, 150 micron particle size formulations; type: in vivo; conditions: particle size 125-150 micron vs 2 and 20 micron, 100 mg/kg oral, 20% Gelucire 44/14, 1% Tween 80
Method: In an experiment, micronized Compound 1 prepared in step 6 of Example 2 with a mean particle size of 2 micron, 20 microns, 150 microns were formulated as suspensions in 20% Gelucire 44/14 and 1% Tween 80 and administered orally to mice at 100 mg/kg. Each time point represents the average of 3 mice (FIG. 16).

[8] = Toxicity (body weight, deaths) in xenograft-bearing immunosuppressed mice; type: in vivo; conditions: for mice died during the treatment: about 90% pure
Method: All regimens were administered daily (qd). Body weights were evaluated periodically during treatment. Each point represents the mean±SEM of eight tumors. […] All regimens were administered daily (qd). Body weights were evaluated periodically during treatment. Each point represents the mean±SEM of eight tumors.
as §1

[9] = particle size less than 5 micron
[10] = crystal form used in clinical trials

CC(=O)c1cc2c(o1)C(=O)c1ccccc1C2=O [Compound 1, 2-acetylnaphtho[2,3-b]furan-4,9-dione]
progression free survival (advanced cancers; blood drug concentration above 1 uM, patients with diverse cancers): increase in progression free survival
progression free survival (PFS) (advanced cancers; patients with advanced colorectal cancer refractory to chemotherapy): Prolongation of progression free survival
progression free survival (advanced cancers; patients with exposure above 1.6 uM for at least 4 hours): improvement in progression free survival
maximum tolerated dose (MTD) ([1]; dose escalated from 20 mg to 2000 mg/day): not reached; also recorded: neither MTD nor RP2D has been reached
Urine Color Change, # of Events ([1]; human, in vivo): 2
Urine Color Change, % of Total ([1]; human, in vivo): 2.5%
Urine Color Change, # of Events ([1]; human, in vivo, 4 weeks): 0
concentration of the compound in urine [2]: high concentration
exposure time tolerated by normal cells [3]: up to 24 hours
selectivity of killing ([3]; about or above 0.2 and 30 μM for about 4 hours up to about 24 hours): selective killing of cancer cells and sparing of normal cells
antitumor activity in a colon cancer lesion in kidney (advanced solid tumors; 20 mg QD): signs of potent antitumor activity
evaluable patients showing no metastatic tumors (advanced solid tumors; 24 evaluable patients with advanced refractory cancers): over 80%
response of colon cancer metastatic lesion to kidney (advanced solid tumors; patient 0001, 20 mg daily): complete regression
Best Response, remark (CA 125) (advanced solid tumors; patient 0014, total daily dose 400 mg bid, Ovarian cancer): CA 125 normalization
Best Response, remark (CEA) (advanced solid tumors; patient 0015, total daily dose 400 mg bid, Colon adenocarcinoma): CEA ? >30-50%
evaluable patients showing SD/MR by RECIST 1.1 (advanced solid tumors; tumors refractory to chemotherapies): 16/24 and 16 out of 24
efficacy ([4]; median particle size about 20 micron, 200 mg/kg oral daily): weak or moderate efficacy
anti-tumor activity ([4]; nanoparticles, D50 about 100 nanometers): reduction of anti-tumor activity
efficacy ([4]; particle size greater than 20 micron): no or weak efficacy
anti-tumor activity [4, 9]: potent anti-tumor activity
toxicity [4, 9]: no observed toxicity
time plasma concentration was sustained ([5]; 320 mg/day dose level, at a concentration of at least 1.5 μM): over 8 hours
clearance from the blood ([5]; human, in vivo, 20 mg): rapidly cleared from the blood
AUC0-24 ([5]; human, in vivo, 320 mg): 29.79 µM·h
AUC0-24 ([5]; human, in vivo, 800 mg): 26.43 µM·h
AUC0-24 ([5]; human, in vivo, 1400 mg): 28.38 µM·h
toxicity to cancer cells versus normal cells [6]: equally toxic to cancer cells and normal cells
plasma exposure [7]: lower level of exposure
toxicity ([8]; about 90% pure Compound 1, GELUCIRE, po, qd): Significant toxicity
mice died during the treatment ([8]; mice with FaDu human head and neck cancer (first experiment)): 4
mice died during the treatment ([8]; mice with MDA-231 human breast cancer (second experiment)): 3
tolerability ([8]; higher purity (about 95% or greater), mice with FaDu or MDA-231 xenografts, po, qd): well-tolerated and showed no signs of toxicity

CC(=O)c1cc2c(o1)C(=O)c1ccccc1C2=O [Crystal Form 1, 2-acetyl-4H, 9H-naphtho[2,3-b]furan-4,9-dione]
anti-tumor activity ([4]; hand grounded Crystal Form 1 in GELUCIRE, po, qd): limited anti-tumor activity; also recorded: low anti-tumor activity

CC(=O)c1cc2c(o1)C(=O)c1ccccc1C2=O [Crystal Form 3, 2-acetyl-4H, 9H-naphtho[2,3-b]furan-4,9-dione]
antitumor activity ([4]; 200 mg/kg hand grounded, in gelucire, po, qd): potent antitumor activities

CC(=O)c1cc2c(o1)C(=O)c1ccccc1C2=O [Crystal Form 2, 2-acetyl-4H, 9H-naphtho[2,3-b]furan-4,9-dione]
anti-tumor activity in cancer patients (advanced solid tumors; [10]): strong signs of anti-tumor activity
anti-tumor activity ([4]; 100 mg/kg micronized (first crop, process of FIGS. 5A-5B) in GELUCIRE, po, qd): potent anti-tumor activity
pharmacokinetics in cancer patients [5, 10]: desirable pharmacokinetics
